The target in assay [1] is T1, ACKR3 (Homo sapiens, UniProt P25106). Format: cell-based. The arrangement: expressed in transfected cells; host or cells: U87 cells, transient co-transfection of pNBe vectors.
Target sequence in this assay (P25106 whole entry): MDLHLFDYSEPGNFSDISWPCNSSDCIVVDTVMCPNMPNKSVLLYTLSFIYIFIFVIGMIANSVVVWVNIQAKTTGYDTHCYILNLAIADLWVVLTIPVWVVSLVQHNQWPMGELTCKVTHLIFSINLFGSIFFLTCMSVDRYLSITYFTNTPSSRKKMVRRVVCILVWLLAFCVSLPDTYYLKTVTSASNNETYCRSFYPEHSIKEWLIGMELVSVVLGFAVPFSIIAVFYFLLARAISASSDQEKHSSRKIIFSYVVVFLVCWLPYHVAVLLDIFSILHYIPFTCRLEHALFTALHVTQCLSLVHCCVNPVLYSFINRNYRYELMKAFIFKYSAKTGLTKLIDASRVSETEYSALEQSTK
Target sequence in this assay (P49407 whole entry partner): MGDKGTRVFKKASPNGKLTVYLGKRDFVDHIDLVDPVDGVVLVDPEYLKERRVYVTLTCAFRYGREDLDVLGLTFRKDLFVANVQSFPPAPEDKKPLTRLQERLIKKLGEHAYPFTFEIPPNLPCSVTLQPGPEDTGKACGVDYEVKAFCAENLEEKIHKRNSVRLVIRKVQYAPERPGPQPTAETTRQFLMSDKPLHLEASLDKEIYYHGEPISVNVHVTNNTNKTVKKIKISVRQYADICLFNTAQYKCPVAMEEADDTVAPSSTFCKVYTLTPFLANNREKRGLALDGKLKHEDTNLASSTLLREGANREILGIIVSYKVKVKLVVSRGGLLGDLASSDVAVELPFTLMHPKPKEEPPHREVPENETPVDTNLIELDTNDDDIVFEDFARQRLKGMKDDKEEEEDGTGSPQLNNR
Assay [2] concerns ACKR3. The experiment in a line: ACKR3 | EC50 (nM). The text has this: Table printed on a drawing sheet, FIG. 3 (continued) F
Head of the field: ACKR3 | EC50 (nM)
Footnotes: *NH2-substituted at C-terminus
The patent's description of the figure: FIG. 3. Structure-activity relationship analysis of adrenorphin variants on ACKR3 and classical opioid receptors. (A) Comparison of the impact of substitutions, truncations, extensions, D-amino acid replacement or dimerization on the agonist activity of adrenorphin towards ACKR3, MOR, DOR, KOR and NOP. The agonist activity or each variant was evaluated in β-arrestin-1 recruitment assay in U87 cells and expressed as fold change over the activity of wild-type adrenorphin. (B-E) Comparison of potency and efficacy of adrenorphin (B) and its variants bearing mutations Y1F (C), M5L (D) and R6A (E) to induce β-arrestin-1 recruitment to ACKR3 and the opioid receptors KOR, MOR, DOR and NOP in U87 cells. “˜” indicates a similar impact of the modification on the potency of the peptide towards ACKR3 and the indicated opioid receptor. Results represent the mean±S.E.M. (n ? 3) (F) Comparison of the potencies of peptide variants combining mutations Y1F with other modifications (mutations and/or extension) to induce β-arrestin-1 recruitment to ACKR3. Modified amino acids with respect to the mother peptide (Y1F adrenorphin […]) are underlined and in bold.
First copying reader's note: Bold underlined residues in the sequences mark modifications relative to the mother peptide; the pEC50 cells include the SEM after ±.
Where the first naming reader finds the target: head: ACKR3

Assay [3] relates to rat locus coeruleus neurons. Format: cell-based. The procedure: 1.9. Ex Vivo Rat Neuron Depolarization
Adult male Wistar rats (6 to 8-week old) were housed at room temperature in groups of three or four with a 12:12 hour light-dark cycle. All animals had access to ad libitum food and water. All procedures were carried out in accordance with guidelines of the European Communities Council Directive of 24 Nov. 1986 (86609EE) and were accepted by the Ethics Committee for Animal Use of the University of Liège (protocol 2061). All efforts were made to minimize animal suffering.
1.9.2. Brain Explant Preparation and Recording Procedures
Rats were anaesthetized with chloral hydrate (400 mg/kg, i.p.) and placed under a cap with oxygenated air (95% O2, 5% CO2) two minutes prior to decapitation. After decapitation, the brain was rapidly removed and placed in ice cold (˜2° C.) oxygenated artificial cerebrospinal fluid (aCSF) of the following composition: NaCl 130 mM, KCl 3.5 mM, NaH2PO4 1.25 mM, NaHCO3 24 mM, Glucose 10 mM, CaCl2 2 mM, MgSO4 1.25 mM. A block of tissue containing the pons was placed in a vibrating blade microtome (Vibratome 1000 Plus, Sectioning System) and a slice containing the locus coeruleus (LC) immediately rostral to the fourth ventricle and the VIIth nerve, used as anatomical landmarks, was cut coronally (400 μm thick). The slice was placed on a nylon mesh in a recording chamber (volume: 0.5 ml) where it was superfused by oxygenated aCSF (34.0±0.5° C.) at a rate of 2 to 3 ml/min. The LC was recognized as a translucent region during transillumination, lateral to the fourth ventricle. All experiments were performed in oxygenated aCSF with synaptic blockers consisting of 10 μM CNQX, 10 μM SR95531, 1 μM MK801, and 1 μM CGP55845, which block AMPA/Kainate, GABAA, NMDA, and GABAB receptors, respectively. This ensured that the spontaneous firing of the neurons was only due to its endogenous pace making.
Extracellular single cell recordings of LC neurons were performed with glass microelectrodes filled with aCSF (resistance 10-20 MΩ). Signals were passed through an impedance adapter and were amplified 1000× using a home-made amplifier. […] Data were collected and analysed with the Spike 2 software (Cambridge Electronic Design). […] The duration of the extracellularly recorded action potentials was 2-3 ms. Drugs and peptides were applied for at least 10 minutes.
The mean firing rate over 1 minute was calculated during each condition. Next, the inhibition of firing by the peptides and drugs used (LIH383 and dynorphin) was quantified as the % of total inhibition. For this purpose, present inventors considered the mean firing rate during the last minute of each condition (control, LIH383 alone, LIH383 plus a given concentration of dynorphin).

The subject of the next assay is smNPCs. Nature of the assay: Uptake of labelled dynorphin A (1-13) by smNPCs, imaging flow cytometry. To be noted: 3 μM, 15 minutes pre-treatment. In kind it is cell-based, human. As to the method: U87 cells derived from human brain glioblastoma were obtained through the NIH AIDS Reagent Program from Dr. Deng and Dr. Littman. U87 stably expressing ACKR3 and CXCR4 were generated as previously described in Szpakowska, M. et al. Different contributions of chemokine N-terminal features attest to a different ligand binding mode and a bias towards activation of ACKR3/CXCR7 compared with CXCR4 and CXCR3. Br J Pharmacol 175, 1419-1438 (2018). U87 cells were grown in Dulbecco's modified Eagle medium (DMEM) supplemented with 15% foetal bovine serum and penicillin/streptomycin (100 Units/ml and 100 μg/ml). U87-ACKR3 and U87-CXCR4 were maintained under puromycin (1 μg/ml) selective pressure. smNPCs (small molecule neural precursor cells) derived from a healthy donor (C1-1) whose informed consent was obtained, were grown on Geltrex™-coated surface in N2B27 medium supplemented with 0.5 μM Purmorphamine, 3 μM CHIR 99021 and 150 μM ascorbic acid. N2B27 medium consisted of DMEM/F12 and NeuroBasal medium 50:50 with 0.5% N2 supplement, 1% B27 supplement lacking vitamin A, 1% GlutaMAX and 1% penicilin/streptomycin. Medium was renewed every other day.
Cells were distributed into 96-well plates (2×10^5 cells/well in Opti-MEM for U87 and U87-ACKR3 and 3×10^5 cells/well in N2B27 medium for smNPCs). […] For comparison of labelled opioid peptide-uptake by ACKR3 or classical opioid receptors, 1.2×10^6 U87 cells were seeded in 10-cm dishes and transfected 48 hours later with 4 μg pcDNA3.1 plasmid encoding ACKR3 or KOR, MOR or NOP. 48 hours post transfection, cells were harvested and treated as described above. Dead cells were excluded using Zombie NIR or Zombie Green viability dye (BioLegend) for FAM-labelled peptides and Cy5-labelled peptides, respectively. Images of 1×10^4 in-focus, living single cells were acquired with an ImageStream MKII imaging flow cytometer (Amnis) using 40× magnification (60× magnification for smNPCs). Samples were analysed using Ideas6.2 software. The number of spots per cell was determined using a mask-based software wizard.
In general terms: In flow cytometry, cells or beads pass a laser one at a time.

For assay [4], the target named is T1, ACKR3. The experiment in a line: ACKR3-mediated depletion of extracellular dynorphin A monitored by its ability to activate KOR (U87-ACKR3 cells). Format: cell-based. The arrangement: expressed in transfected cells; for the receptor comparison in the uptake assay, transient pcDNA3.1). To be noted: for reversal of the ACKR3-mediated impairment of dynorphin A potency to activate KOR by pre-treatment: pre-treatment of ACKR3-expressing cells, saturating concentration. The procedure:
(§1) In brief, 1.2×10^6 U87 cells were plated in 10 cm-culture dishes and 48 hours later co-transfected with pNBe vectors encoding GPCRs C-terminally tagged to SmBiT and human β-arrestin-1 or -2 or mini G proteins (mG, engineered GTPase domains of Gα subunits,) N-terminally fused to LgBiT. 48 hours post-transfection cells were harvested, incubated 25 minutes at 37° C. with Nano-Glo Live Cell substrate diluted 200-fold and distributed into white 96-well plates (5×10^4 cells per well). Ligand-induced, β-arrestin and mG recruitment to GPCRs was evaluated with a Mithras LB940 luminometer (Berthold Technologies) for 20 minutes. For concentration-response curves, the signal recorded with a saturating concentration of full agonist for each receptor was set as 100%.
Target sequence in this assay (P25106 whole entry): as the sequence (P25106 whole entry) above

The target of the next assay is KOR (Homo sapiens, UniProt P41145). The experiment in a line: β-arrestin-1 recruitment to KOR (NanoBiT, U87 cells). In kind it is cell-based. The arrangement: expressed in transfected cells; host or cells: U87 cells, transient co-transfection of pNBe vectors. As to the method: as §1
Sequence of KOR (P41145 whole entry): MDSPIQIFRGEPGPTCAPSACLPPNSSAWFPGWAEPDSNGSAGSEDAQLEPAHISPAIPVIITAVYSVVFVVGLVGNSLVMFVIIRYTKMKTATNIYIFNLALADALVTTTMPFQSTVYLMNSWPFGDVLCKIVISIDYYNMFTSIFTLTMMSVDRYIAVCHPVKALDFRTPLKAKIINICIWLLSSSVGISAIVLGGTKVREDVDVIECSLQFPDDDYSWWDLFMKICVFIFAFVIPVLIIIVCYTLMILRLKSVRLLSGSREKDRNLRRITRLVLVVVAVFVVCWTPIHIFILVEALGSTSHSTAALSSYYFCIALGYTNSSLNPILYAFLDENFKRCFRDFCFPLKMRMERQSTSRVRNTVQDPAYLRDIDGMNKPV
(Arrestin recruitment assays detect the binding of arrestin to an activated receptor.)

Another assay addresses T2, MOR (Homo sapiens, UniProt P35372).
T2 construct: expressed in transfected cells; host or cells: U87 cells, transient co-transfection of pNBe vectors
In kind it is cell-based. As to the method:
as §1

Another assay addresses T3, DOR (Homo sapiens, UniProt P41143).
T3 construct: expressed in transfected cells; host or cells: U87 cells, transient co-transfection of pNBe vectors
Nature of the assay: β-arrestin-1 recruitment to DOR (NanoBiT, U87 cells). In kind it is cell-based. The procedure: as §1

What is called EC50 is the concentration that produces a half-maximal response.

T3 sequence (P41143 whole entry): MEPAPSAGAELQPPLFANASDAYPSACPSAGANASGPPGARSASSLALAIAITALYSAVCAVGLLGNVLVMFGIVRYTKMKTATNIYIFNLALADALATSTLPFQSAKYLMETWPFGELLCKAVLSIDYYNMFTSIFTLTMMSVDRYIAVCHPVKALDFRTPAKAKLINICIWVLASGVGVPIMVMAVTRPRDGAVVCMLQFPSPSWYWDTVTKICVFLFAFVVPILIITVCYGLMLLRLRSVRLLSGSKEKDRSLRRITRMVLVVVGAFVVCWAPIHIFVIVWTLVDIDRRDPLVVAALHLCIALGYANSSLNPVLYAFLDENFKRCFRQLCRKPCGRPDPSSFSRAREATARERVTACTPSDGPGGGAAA
T2 sequence (P35372 whole entry): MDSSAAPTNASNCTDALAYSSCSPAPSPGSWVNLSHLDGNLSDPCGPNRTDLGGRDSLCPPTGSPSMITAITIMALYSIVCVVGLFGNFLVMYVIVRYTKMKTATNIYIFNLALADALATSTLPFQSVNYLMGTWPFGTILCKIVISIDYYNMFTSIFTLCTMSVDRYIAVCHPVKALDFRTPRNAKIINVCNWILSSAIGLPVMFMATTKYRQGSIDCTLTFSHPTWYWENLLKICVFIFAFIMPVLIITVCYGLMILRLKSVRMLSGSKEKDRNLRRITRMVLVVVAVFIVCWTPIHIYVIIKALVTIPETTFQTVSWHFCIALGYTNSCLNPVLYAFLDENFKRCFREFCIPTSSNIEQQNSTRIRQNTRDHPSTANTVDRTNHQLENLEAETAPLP

In the case of `Oc1ccc2c3c1O[C@H]1c4[nH]c5c(c4C[C@@]4(O)[C@@H](C2)N(CC2CC2)CC[C@]314)C[C@@]1(O)[C@H]2Cc3ccc(O)c4c3[C@@]1(CCN2CC1CC1)[C@H]5O4` [nor-binaltrophimine, reference compound], on ACKR3 [1] (10 μM, 1 μM and 100 nM), the “activity of opioid modulators towards ACKR3 in β-arrestin recruitment” value is given as “Weak activation of ACKR3”.

FGGWMRRVR (peptide 5) [SEQ ID NO: 10]: the EC50 in the assay with ACKR3 [2] was found to be 5.42 nM.

As for `C=CCN1CC[C@]23c4c5ccc(O)c4O[C@H]2C(=O)CC[C@@]3(O)[C@H]1C5` [naloxone], the “effect of dynorphin A (1 μM) on neuronal firing rate after naloxone pretreatment” value in assay [3] was “did not lead to a change in neuronal firing rate”.

For FGGWMRRK (peptide 4) [SEQ ID NO: 6], in the assay with ACKR3 [2], the midpoint of the response, the EC50, lay at 4.03 nM.

For FGGFMRRFR (peptide 45) [SEQ ID NO: 70], the EC50 in the assay with ACKR3 [2] was 16.3 nM.

Consider FGGFMRRVR (peptide 3) [SEQ ID NO: 5], for which, in the assay with ACKR3 [2], the EC50 came to 3.97 nM.

For the compound “MRRKFGGF [LIH383 ctrl, control peptide consisting of the 8 amino acids building LIH383 in a different arrangement, reference compound]”, in the assay with smNPCs, the “effect of pretreatment on uptake of labelled dynorphin A (1-13) by smNPCs” value is given as “not”. The “reversal of the ACKR3-mediated impairment of dynorphin A potency to activate KOR by pre-treatment” value in the assay with ACKR3 [4] was “not”.

FGGFMRRF (peptide 44) [SEQ ID NO: 69]: the EC50 with ACKR3 [2] came to 11 nM.

Turning to FGGWMRRV (peptide 43) [SEQ ID NO: 68], the EC50 in the assay with ACKR3 [2] stood at 10.5 nM.

On to “CXCL10: irrelevant (negative control) chemokine”, for which the “reversal of the ACKR3-mediated impairment of dynorphin A potency to activate KOR by pre-treatment” value with ACKR3 [4] is reported as “not”.

For the compound FGGWMRRF (peptide 47) [SEQ ID NO: 72], in the assay with ACKR3 [2], it took 19.1 nM to reach a half-maximal effect (EC50).

Regarding FGGFMRRV [adrenorphin Y1F variant], in the assay with KOR, the “reduction of potency towards KOR as compared to WT adrenorphin” value was “over 100 fold”. In the assay with MOR, the “reduction of potency towards MOR as compared to WT adrenorphin” value is reported as “over 100 fold”. Besides, the “impact of adrenorphin modification on activity towards ACKR3 (versus adrenorphin), in words” value with ACKR3 [1] (β-arrestin-1 recruitment, U87 cells) is given as “tenfold improvement in potency”. Further, the “reduction of potency towards DOR as compared to WT adrenorphin” value with DOR was “over 100 fold”.

Turning to `CC[C@H](C)[C@H](NC(=O)[C@H](CCCNC(=N)N)NC(=O)[C@H](CCCNC(=N)N)NC(=O)[C@H](CC(C)C)NC(=O)[C@H](Cc1ccccc1)NC(=O)CNC(=O)CNC(=O)[C@@H](N)Cc1ccc(O)cc1)C(=O)N[C@@H](CCCNC(=N)N)C(=O)N1CCC[C@H]1C(=O)N[C@@H](CCCCN)C(=O)N[C@@H](CC(C)C)C(=O)N[C@@H](CCCCN)C(=O)N[C@@H](Cc1c[nH]c2ccccc12)C(=O)N[C@@H](CC(=O)O)C(=O)N[C@@H](CC(N)=O)C(=O)N[C@@H](CCC(N)=O)C(=O)O` [dynorphin A], the “apparent potency to activate KOR in the presence of ACKR3-expressing cells” value at ACKR3 [4] is “impaired”. Also, the EC50 in assay [3] (LIH383 3 μM group, read-out: EC50 of dynorphin for inhibition of firing, one aberrant individual value that was omitted) came to 559 nM. Besides, in assay [3] (explants of rat locus coeruleus), the “concentration giving total inhibition of neuron depolarization (neuronal firing)” value was found to be 1 µM.

FGGFMRRKR (peptide 2) [SEQ ID NO: 4] showed an EC50 with ACKR3 [2] of 1.11 nM.

FGGWMRRKR (peptide 6) [SEQ ID NO: 11] yielded an EC50 in the assay with ACKR3 [2] of 7.34 nM.

“dynorphin 2-17: endogenous truncated dynorphin variant (GGFLRRIRPKLKWDNQ; listed as Homo sapiens) [reference compound]”: the “β-arrestin recruitment to ACKR3: agonist activity/potency in words” value with ACKR3 [1] (U87 cells) is “activated”.

“dynorphin 2-13: endogenous truncated dynorphin variant [reference compound]”: in the assay with ACKR3 [1] (U87 cells), the “β-arrestin recruitment to ACKR3: agonist activity/potency in words” value is listed as “activated”.

For the compound YGGFMRRV* (adrenorphin) [compound 32], the response in the assay on ACKR3 [2] was half-maximal at 109 nM (EC50).

FGGWMRRFR (peptide 46) [SEQ ID NO: 71] displayed an EC50 with ACKR3 [2] of 19.1 nM.

In the case of “FGGFMRRV* (mother peptide) [compound 35]”, the EC50 in the assay on ACKR3 [2] is 9.33 nM.

Consider “CXCL11: C—X—C motif chemokine 11, endogenous ACKR3 chemokine ligand”, for which, in the assay with ACKR3 [1] (U87 cells, read-out: EC50 in inducing β-arrestin recruitment to ACKR3), the EC50 amounted to 2.2 nM.

For the origin of these results see patent publication US12578343B2, “Selective ACKR3 modulators and uses thereof” (Luxembourg Institute of Health (LIH), priority 2019, dated 2026).
